In brackets after ≈: the same amount, converted by molar mass. Some results are limits rather than exact numbers.

The species named for data set [1] is Bos taurus. In words: Percentage binding to bovine iris and ciliary body. The class given is functional.
The target in data set [2] is T1, Carbonic anhydrase 2 (Homo sapiens, UniProt P00918).
Description: Inhibition of human erythrocyte carbonic anhydrase II
Data set [3] can be described thus: physchem. As to conditions: water.
Description: Solubility was evaluated in water at 25 degree Centigrade
Data set [4] can be described thus: physchem. Particulars: 30% ethanol.
Data set [5] in a line: physchem. As to conditions: water. This is another data set of the same source.
The target of data set [6] is T1, Carbonic anhydrase 2. The source holds these as a separate data set.
Description: Compound was evaluated for the inhibition of dansylamide at human carbonic anhydrase II
Data set [7] is filed under the species Bos taurus.
Data set [8] is described as follows: Solubility was evaluated at pH 7.4 buffer at 25 degree Centigrade. The class given is physicochemical.
Data set [9] in a line: pKa in water. In kind it is physicochemical.
The species named for data set [10] is Bos taurus. In words: Percentage binding of bovine ocular pigment. In kind it is functional, Eye.
The next data set is filed under the species Oryctolagus cuniculus. In words: Compound was evaluated for the lowering of the intraocular pressure (IOP) (2%, 3 drops) in ocular normotensive pigmented rabbits. The class given is functional, Eye.

Turning to `CCCNCc1cc2cc(S(N)(=O)=O)oc2s1`, the Pigment binding in the data set listed under Bos taurus [1] worked out at 68%. At Carbonic anhydrase 2 [2], this molecule yielded an IC50 of 8 nM. This molecule returned a solubility in “physchem [3]” greater than 22.5 mg/mL. In addition, the pKa amounted to 9.4 in the data set “physchem [4]” and 7.85 in the data set “physchem [5]”.
At Carbonic anhydrase 2 [2], `COCCOCCN(CCOC)Cc1cc2cc(S(N)(=O)=O)oc2s1` showed an IC50 of 6.49 nM. On Carbonic anhydrase 2 [6], this molecule showed a Ki of 3.6 nM. This molecule also registered a Pigment binding in the data set listed under Bos taurus [7] of 21%. Further, the values for the pKa in the data set “physchem [4]” and in “physchem [5]” were 8.85 and 5.55, respectively.
In turn, `COCCCNCc1cc2cc(S(N)(=O)=O)oc2s1` returned an IC50 against Carbonic anhydrase 2 [2] of 12 nM. This molecule yielded a Pigment binding in the data set listed under Bos taurus [7] of 78%. Also, in the data set “physchem [3]”, the solubility is greater than 34 mg/mL. Moreover, the pKa was determined as 9 in “physchem [4]” and 7.25 in the data set “physchem [5]”.
For `NS(=O)(=O)c1cc2cc(CNCc3ccccn3)sc2o1`, the results for the solubility (in data set [8]; in “physchem [3]”) were 16.9 mg/mL (≈ 52.3 mM) and 20.4 mg/mL (≈ 63.1 mM), respectively. Besides, the IC50 at Carbonic anhydrase 2 [2] came out at 8.2 nM. Also, the affinity on Carbonic anhydrase 2 [6] corresponds to a Ki of 8.2 nM. Also, in the data set filed under Bos taurus [7], the Pigment binding turned out to be 69%. Further, the pKa in “physchem [4]” worked out at 9.08; in the data set “physchem [5]”, 7.02.
In the case of `COCCNCc1cc2cc(S(N)(=O)=O)oc2s1`, the solubility (in [8]; in the data set “physchem [3]”) was greater than 27 mg/mL in each case. Besides, the pKa in data set [9] is 7; in “physchem [4]”, 9.05. The Pigment binding in the data set listed under Bos taurus [1] is 73%. At Carbonic anhydrase 2 [2], 11 nM corresponded to half-maximal inhibition (IC50).
`NS(=O)(=O)c1cc2cc(CNCCF)sc2o1`: at Carbonic anhydrase 2 [2], the IC50 came out at 12 nM. In addition, on Carbonic anhydrase 2 [6], the Ki was 3.4 nM. In addition, in the data set listed under Bos taurus [7], the Pigment binding is 60%. The molecule further registered a solubility in “physchem [3]” greater than 32 mg/mL. Besides, the pKa came out at 9 in the data set “physchem [4]” and 6.55 in the data set “physchem [5]”.
Turning to `CC(C)CNCc1cc2cc(S(N)(=O)=O)oc2s1`, in the data set filed under Bos taurus [1], the Pigment binding is reported as 73%. The IC50 on Carbonic anhydrase 2 [2] was determined as 6 nM. This molecule showed a Ki on Carbonic anhydrase 2 [6] of 7.4 nM. Also, in the data set “physchem [3]”, the solubility was 15.3 mg/mL (≈ 53.1 mM). In addition, the pKa in the data set “physchem [4]” is 9.1; in the data set “physchem [5]”, 7.55.
In the case of `NS(=O)(=O)c1cc2cc(CN3CCOCC3)sc2o1`, the solubility in data set [8] was 0.97 mg/mL (≈ 3.21 mM); in the data set “physchem [3]”, greater than 4.7 mg/mL. For the same molecule, the pKa worked out at 5.32 in [9] and 9.2 in the data set “physchem [4]”. The molecule further came in with a Binding in the data set filed under Bos taurus [10] of 24.8%. The Pigment binding in the data set filed under Bos taurus [1] turned out to be 25%. Besides, in the data set filed under Oryctolagus cuniculus, the IOP lowering was found to be 2.5 mmHg. At Carbonic anhydrase 2 [2], this molecule had an IC50 of 5.6 nM. At Carbonic anhydrase 2 [6], this molecule returned a Ki of 1.24 nM.
For `CNCc1cc2cc(S(N)(=O)=O)oc2s1`, in the data set filed under Bos taurus [1], the Pigment binding came out at 77%. Moreover, inhibition against Carbonic anhydrase 2 [2] was half-maximal at 9 nM (IC50). The Ki at Carbonic anhydrase 2 [6] is 32.3 nM. Besides, the solubility in the data set “physchem [3]” is greater than 51 mg/mL. Besides, the pKa in the data set “physchem [4]” worked out at 9.25; in the data set “physchem [5]”, 7.85.
For `CCOCCNCc1cc2cc(S(N)(=O)=O)oc2s1`, the solubility in data set [8] was determined as 19.7 mg/mL (≈ 64.7 mM); in the data set “physchem [3]”, 40.8 mg/mL (≈ 134 mM). Moreover, the figures for the pKa (in [9]; in “physchem [4]”) were 6.85 and 8.9, respectively. In the data set filed under Bos taurus [1], this molecule showed a Pigment binding of 75%. This molecule showed an IC50 on Carbonic anhydrase 2 [2] of 8 nM.
In the case of `COCCN(CCOC)Cc1cc2cc(S(N)(=O)=O)oc2s1`, the Binding in the data set listed under Bos taurus [10] is recorded as 26.9%. Further, the Pigment binding in the data set listed under Bos taurus [1] came to 27%. The IOP lowering in the data set filed under Oryctolagus cuniculus amounted to 3.9 mmHg. In addition, the IC50 at Carbonic anhydrase 2 [2] worked out at 5.1 nM. Further, the Ki on Carbonic anhydrase 2 [6] worked out at 2.6 nM. The molecule further came in with a solubility in the data set “physchem [3]” greater than 30 mg/mL. The pKa in “physchem [4]” came to 8.95; in the data set “physchem [5]”, 5.57.
At Carbonic anhydrase 2 [2], `NS(=O)(=O)c1cc2cc(CNCCCCO)sc2o1` displayed an IC50 of 11 nM. In “physchem [3]”, this molecule registered a solubility greater than 47 mg/mL. Moreover, the pKa in the data set “physchem [4]” is 9.16; in “physchem [5]” it was 7.65.

For orientation: IC50 means the concentration that inhibits the measured activity by half. The solubility is the concentration that dissolves in the medium under given conditions. In general, pKa refers to the negative logarithm of the acid dissociation constant. A higher pKa goes with a group that holds its proton tightly. Broadly, the Ki is a dissociation constant, usually derived from enzyme kinetics or from competition with a known ligand. Read a low Ki as a stronger hold on the target.

The record behind these values is ChEMBL document CHEMBL1125519, “Thieno[2,3-b]furan-2-sulfonamides as topical carbonic anhydrase inhibitors” (J Med Chem, 1992).
